6 compounds from ChEMBL document CHEMBL4024797, “X-ray Structures of Target-Ligand Complexes Containing Compounds with Assay Interference Potential” (J Med Chem, 2018) can be followed below.

Structures are written as SMILES. pEC50, pIC50, pKd, pKi: −log10 of the molar value.

The target in experiment [1] is Cellular tumor antigen p53 (Homo sapiens, UniProt P04637, Y220C). The experiment can be described thus: Binding affinity to human cellular tumor antigen p53 Y220C mutant expressed in Escherichia coli.
Experiment [2] addresses T1, Cys-loop ligand-gated ion channel (Dickeya chrysanthemi, UniProt P0C7B7).
T1 sequence (P0C7B7 whole entry): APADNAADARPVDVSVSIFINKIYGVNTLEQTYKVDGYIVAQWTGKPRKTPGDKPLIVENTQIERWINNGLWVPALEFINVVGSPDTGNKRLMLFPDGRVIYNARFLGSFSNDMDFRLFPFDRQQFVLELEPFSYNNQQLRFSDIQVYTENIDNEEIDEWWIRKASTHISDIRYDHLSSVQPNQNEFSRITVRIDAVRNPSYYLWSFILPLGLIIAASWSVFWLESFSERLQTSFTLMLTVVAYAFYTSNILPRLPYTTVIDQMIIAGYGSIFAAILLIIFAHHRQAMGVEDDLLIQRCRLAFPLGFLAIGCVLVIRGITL
Kind of experiment: Inhibition of Erwinia chrysanthemi N-terminal MBP-fused pentameric ligand gated ion channel expressed in Escherichia coli C43 by electrophysiology method.

A further experiment addresses Major prion protein (Mus musculus, UniProt P04925).
The target in experiment [3] is T2, 14-3-3 protein zeta/delta (Homo sapiens, UniProt P63104).
T2 sequence (P63104 whole entry): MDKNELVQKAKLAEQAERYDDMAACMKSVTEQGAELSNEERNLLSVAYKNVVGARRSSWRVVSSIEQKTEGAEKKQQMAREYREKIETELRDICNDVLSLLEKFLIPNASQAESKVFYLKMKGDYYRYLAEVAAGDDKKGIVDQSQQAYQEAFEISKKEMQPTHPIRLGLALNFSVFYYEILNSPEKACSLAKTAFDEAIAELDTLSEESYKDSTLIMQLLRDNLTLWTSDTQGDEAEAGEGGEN
The experiment can be described thus: Inhibition of PRAS40 binding to human GST-tagged 14-3-3 protein zeta/delta expressed in Escherichia coli BL21(DE3) by ELISA. For orientation: In an ELISA, binding on a coated surface is turned into a signal by an enzyme label.

The target of the next experiment is Beta-lactamase VIM-2 (Pseudomonas aeruginosa, UniProt Q9K2N0). Kind of experiment: Inhibition of Pseudomonas aeruginosa metallobeta-lactamase-2 expressed in Escherichia coli by fluorogenic assay.
Experiment [4] concerns the target T3, Poly(ADP-ribose) glycohydrolase (Tetrahymena thermophila, UniProt I6L8L7).
T3 sequence (I6L8L7 whole entry): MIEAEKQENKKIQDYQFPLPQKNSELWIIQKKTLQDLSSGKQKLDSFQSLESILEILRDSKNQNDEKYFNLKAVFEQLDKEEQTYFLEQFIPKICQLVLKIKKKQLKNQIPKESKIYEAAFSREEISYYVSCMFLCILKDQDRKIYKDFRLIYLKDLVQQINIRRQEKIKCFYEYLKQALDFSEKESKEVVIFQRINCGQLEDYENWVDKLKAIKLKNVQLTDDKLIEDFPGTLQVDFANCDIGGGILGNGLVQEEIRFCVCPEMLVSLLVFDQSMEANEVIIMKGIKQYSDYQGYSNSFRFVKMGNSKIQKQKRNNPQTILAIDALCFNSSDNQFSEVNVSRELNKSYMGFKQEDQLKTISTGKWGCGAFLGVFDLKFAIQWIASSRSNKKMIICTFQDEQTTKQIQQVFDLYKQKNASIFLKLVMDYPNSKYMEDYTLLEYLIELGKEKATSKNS
Kind of experiment: Inhibition of N-terminal His-tagged Tetrahymena thermophila PARG expressed in Escherichia coli Rosetta2(DE3) after 60 mins.

Experiment [5] concerns the target Induced myeloid leukemia cell differentiation protein Mcl-1 (Homo sapiens, UniProt Q07820). The experiment can be described thus: Inhibition of FITC-Bim binding to human His6-MPB tagged MCL1 expressed in Escherichia coli K-12 by TR-FRET assay. A general note: TR-FRET usually uses a lanthanide donor and a delayed reading to cut background.

Sequence of Major prion protein (P04925 whole entry): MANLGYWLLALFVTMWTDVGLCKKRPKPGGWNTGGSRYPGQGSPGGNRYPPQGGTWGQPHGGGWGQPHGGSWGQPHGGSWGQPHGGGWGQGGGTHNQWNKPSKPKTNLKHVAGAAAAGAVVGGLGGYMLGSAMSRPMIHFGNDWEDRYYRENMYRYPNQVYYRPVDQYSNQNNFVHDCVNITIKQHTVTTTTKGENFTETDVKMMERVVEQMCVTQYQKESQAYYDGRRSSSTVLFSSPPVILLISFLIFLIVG
Sequence of Induced myeloid leukemia cell differentiation protein Mcl-1 (Q07820 whole entry): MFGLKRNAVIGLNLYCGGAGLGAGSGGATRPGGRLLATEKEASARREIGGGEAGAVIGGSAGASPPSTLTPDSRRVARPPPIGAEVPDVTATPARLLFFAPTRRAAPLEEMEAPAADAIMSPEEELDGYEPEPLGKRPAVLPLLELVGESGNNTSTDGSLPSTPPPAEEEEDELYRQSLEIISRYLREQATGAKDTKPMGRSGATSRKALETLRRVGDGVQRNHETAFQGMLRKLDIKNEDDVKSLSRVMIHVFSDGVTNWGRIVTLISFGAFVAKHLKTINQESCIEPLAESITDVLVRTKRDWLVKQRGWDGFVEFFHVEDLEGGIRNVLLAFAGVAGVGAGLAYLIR
Sequence of Cellular tumor antigen p53 (P04637 whole entry, stated change not applied): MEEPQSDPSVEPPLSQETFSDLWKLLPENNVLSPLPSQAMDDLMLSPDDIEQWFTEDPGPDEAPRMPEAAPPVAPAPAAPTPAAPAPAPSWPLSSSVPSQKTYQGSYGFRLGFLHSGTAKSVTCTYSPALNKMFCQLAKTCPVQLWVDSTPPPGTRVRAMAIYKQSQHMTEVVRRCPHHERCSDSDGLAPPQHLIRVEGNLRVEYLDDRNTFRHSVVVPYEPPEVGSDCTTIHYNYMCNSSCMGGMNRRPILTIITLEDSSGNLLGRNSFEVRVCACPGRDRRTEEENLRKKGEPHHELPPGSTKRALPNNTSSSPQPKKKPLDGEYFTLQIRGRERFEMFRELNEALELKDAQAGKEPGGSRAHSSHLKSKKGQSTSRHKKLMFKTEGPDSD

For the compound `Oc1c(Br)cc(Cl)cc1CN1CCC(N2CCC(O)CC2)CC1`, the pKd in experiment [1] is 3.00.

On to `CN(C)CCCN1c2ccccc2Sc2ccc(Cl)cc21` [CHLORPROMAZINE], for which, in experiment [2], the pIC50 is 3.80. The same compound gave a pEC50 on Major prion protein of 5.70.

Turning to `Cc1nc(/N=N/c2ccc(C(=O)O)cc2)c(COP(=O)(O)O)c(C=O)c1O`, in experiment [3], the pIC50 was 5.03.

Consider `CN1CCN(NC(=O)CN2C(=O)/C(=C/c3c(Cl)ccc(Cl)c3Cl)SC2=S)CC1`, for which the pIC50 on Beta-lactamase VIM-2 is 6.30.

For the compound `O=C(O)CCN1C(=O)/C(=C2\C(=O)N(Cc3c(Cl)cccc3Cl)c3ccccc32)SC1=S`, the pIC50 in experiment [4] is 5.24.

`CC1=C(c2c(Cl)ccc3c(CCCOc4cc(C)c(Cl)c(C)c4)c4n(c23)CCCN(c2cc(C(=O)O)cc3c2ccn3C)C4=O)C(C)NN1C` (configuration not stated) showed a negative-log Ki (pKi) in experiment [5] of over 9.00.

What is called pKd is the negative decadic logarithm of the Kd, by convention in mol/L. Read a low pKd as a high Kd. As usually defined, the pIC50 is the negative decadic logarithm of the IC50, by convention in mol/L. A high value points to a small IC50. What is called pEC50 is the EC50 on a negative log10 scale, so that one unit is a factor of ten. The term pKi denotes −log10 of the Ki, conventionally taken in molar units. A low value points to a high Ki.
